Assay results from patent US20240426845A1, “METHOD FOR DETECTING A LIPIDATED PROTEIN VIA FLUORESCENCE RESONANCE ENERGY TRANSFER (FRET)” (Biogen MA Inc., priority 2021, published 2024).

Tests used:
[1] = system: CCF-STTG1 astrocytoma cells (ApoE lipoprotein secretion); experiment: TR-FRET ApoE lipidation assay on media from CCF-STTG1 cells; assay type: cell-based; conditions: Homo sapiens, media from CCF-STTG cells, 48 hours incubation, europium-conjugated anti-ApoE antibody and DiD, n=3, read-out: EC50 (TR-FRET signal, ApoE lipidation)
Experimental: TR-FRET analysis was performed on an Envision plate reader (Perkin Elmer). The donor fluorophore (europium cryptate-conjugated antibody) was excited at 320 nm. A 40 μs delay occurred before measuring emission signals at 620 nm (donor fluorescence) and 665 nm wavelengths (DiD acceptor FRET signal) during a 400 μs window. Sample normalized FRET signal was determined by finding the ratio of the 665 nm emission to 620 nm emission.
(§1) To test whether the TR-FRET assay detects lipidated proteins secreted from cells, the TR-FRET assay was tested on concentrated media from cultures of CCF-STTG1 astrocytoma cells grown in the absence and presence of T0901317, a LXR transcription factor agonist that induces ApoE lipoprotein secretion. Samples of concentrated media were mixed with TR-FRET buffer, europium-conjugated anti-ApoE3 antibody and DiD, incubated at 37° C. for 20 hours, and then fluorescence was measured using an Envision plate reader. As a control, samples were analyzed by native-PAGE gels, a conventional method of detecting lipidated proteins.

[2] = system: CCF-STTG1 astrocytoma cells (ApoE lipoprotein secretion); experiment: native-PAGE gel of ApoE lipidation in conditioned media; assay type: cell-based; conditions: CCF-STTG1 cell media following culture with compound
Experimental: as §1

Question: Which results are given for `O=S(=O)(c1ccccc1)N(CC(F)(F)F)c1ccc(C(O)(C(F)(F)F)C(F)(F)F)cc1` [T0901317]?
Answer: EC50 [1]: 50.2 nM; lipidated ApoE in cell media by native-PAGE [2]: dose-dependent accumulation of lipidated ApoE
